Data reported in patent US20060110790A1, “Expression system for large functional proteins” (priority 2002, published 2006).

Tests used:
Type in all cases: binding
[1] = target: T1, co-expressed N and C halves of ABCR (Homo sapiens, UniProt P78363); test: 8-azido-ATP photoaffinity labeling of membranes from transfected cells; conditions: 1 mM ATP added prior to photoaffinity labeling; 1.5 μM 8-azido-[α-32P]ATP; C-half labeled; FIG. 5A lane 4
T1 construct: The cDNAs coding for the N-half (amino acids 1-1325) and C-half (amino acids 1326-2273) of ABCR; made in house; host or cells: COS-1 cells, co-transfected
T1 sequence (P78363 1-1325): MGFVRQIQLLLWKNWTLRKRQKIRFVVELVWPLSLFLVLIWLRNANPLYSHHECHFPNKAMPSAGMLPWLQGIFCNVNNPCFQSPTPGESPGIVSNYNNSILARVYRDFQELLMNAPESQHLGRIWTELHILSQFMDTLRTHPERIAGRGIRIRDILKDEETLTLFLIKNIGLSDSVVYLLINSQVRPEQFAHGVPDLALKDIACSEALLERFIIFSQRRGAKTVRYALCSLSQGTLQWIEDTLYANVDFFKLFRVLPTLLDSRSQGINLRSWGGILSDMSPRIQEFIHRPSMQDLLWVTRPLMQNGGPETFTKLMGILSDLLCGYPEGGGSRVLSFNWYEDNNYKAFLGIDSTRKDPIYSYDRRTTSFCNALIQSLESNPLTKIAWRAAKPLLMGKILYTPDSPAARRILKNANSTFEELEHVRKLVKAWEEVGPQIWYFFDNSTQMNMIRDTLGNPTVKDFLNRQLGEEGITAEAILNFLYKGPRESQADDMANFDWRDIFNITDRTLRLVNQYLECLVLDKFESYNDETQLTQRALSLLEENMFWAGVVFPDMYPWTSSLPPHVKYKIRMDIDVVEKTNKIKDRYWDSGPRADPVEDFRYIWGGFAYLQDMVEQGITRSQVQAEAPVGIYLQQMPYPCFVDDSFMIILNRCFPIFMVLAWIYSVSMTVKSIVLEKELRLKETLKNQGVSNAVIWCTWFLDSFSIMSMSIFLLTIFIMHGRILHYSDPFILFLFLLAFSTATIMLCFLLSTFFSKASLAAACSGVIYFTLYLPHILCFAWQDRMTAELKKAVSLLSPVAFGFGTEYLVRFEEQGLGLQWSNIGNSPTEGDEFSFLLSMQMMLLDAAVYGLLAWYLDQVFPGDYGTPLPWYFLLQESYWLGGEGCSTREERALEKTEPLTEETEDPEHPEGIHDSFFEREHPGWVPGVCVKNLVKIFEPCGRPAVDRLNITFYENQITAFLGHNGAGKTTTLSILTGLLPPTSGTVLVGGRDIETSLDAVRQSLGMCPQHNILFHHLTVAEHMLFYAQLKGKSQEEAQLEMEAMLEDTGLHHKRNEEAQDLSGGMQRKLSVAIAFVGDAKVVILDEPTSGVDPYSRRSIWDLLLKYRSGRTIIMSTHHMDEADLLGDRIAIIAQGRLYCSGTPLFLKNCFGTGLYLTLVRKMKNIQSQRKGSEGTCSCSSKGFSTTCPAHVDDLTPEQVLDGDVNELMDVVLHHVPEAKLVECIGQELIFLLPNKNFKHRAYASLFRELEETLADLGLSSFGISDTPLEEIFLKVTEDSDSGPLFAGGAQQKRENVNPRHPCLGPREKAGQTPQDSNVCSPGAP
T1 sequence (P78363 1326-2273): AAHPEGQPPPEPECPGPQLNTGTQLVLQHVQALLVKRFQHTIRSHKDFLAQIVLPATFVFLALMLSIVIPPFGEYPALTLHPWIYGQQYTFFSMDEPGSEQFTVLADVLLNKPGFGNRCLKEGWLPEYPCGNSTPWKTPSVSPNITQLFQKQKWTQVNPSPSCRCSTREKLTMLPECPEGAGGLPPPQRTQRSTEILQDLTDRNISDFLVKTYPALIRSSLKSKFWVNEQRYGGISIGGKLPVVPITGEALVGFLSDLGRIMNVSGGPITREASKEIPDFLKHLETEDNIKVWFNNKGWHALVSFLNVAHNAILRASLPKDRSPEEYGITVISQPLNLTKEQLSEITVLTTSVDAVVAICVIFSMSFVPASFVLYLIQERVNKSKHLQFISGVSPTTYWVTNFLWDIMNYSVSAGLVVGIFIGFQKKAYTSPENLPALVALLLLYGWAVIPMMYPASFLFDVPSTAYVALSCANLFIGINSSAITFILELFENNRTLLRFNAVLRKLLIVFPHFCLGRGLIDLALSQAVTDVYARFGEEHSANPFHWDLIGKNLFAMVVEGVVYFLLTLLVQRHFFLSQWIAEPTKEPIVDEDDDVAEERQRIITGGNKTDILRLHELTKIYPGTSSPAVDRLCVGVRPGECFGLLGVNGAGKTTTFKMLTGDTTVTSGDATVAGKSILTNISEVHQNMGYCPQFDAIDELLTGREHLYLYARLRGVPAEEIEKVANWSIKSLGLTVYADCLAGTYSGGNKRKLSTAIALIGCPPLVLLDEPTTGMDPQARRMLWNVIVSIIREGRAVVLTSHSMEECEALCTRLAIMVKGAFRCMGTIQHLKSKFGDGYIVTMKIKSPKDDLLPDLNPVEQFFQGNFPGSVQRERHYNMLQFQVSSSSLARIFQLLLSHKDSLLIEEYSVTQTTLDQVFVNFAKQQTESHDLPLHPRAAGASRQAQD
Procedure: (§1) FIG. 5. Azido-ATP photoaffinity labeling of the N and C halves of ABCR. A. Membranes from transfected cells expressing either full-length ABCR (lanes 1 & 2) or co-expressing the N and C halves (lanes 3 & 4) were photoaffinity labeled with 1.5 μM 8-azido-[α-^32P]ATP in the absence or presence of 1 mM ATP. The expressed protein was isolated on a Rim3F4-Sepharose matrix prior to analysis by SDS-PAGE and phosphorimage analysis. Left panel: Coomassie blue stained gel. Right panel: Azido-ATP labeling. B. Membranes from transfected cells expressing full-length ABCR, the N-half, the C-half, or both halves (NC halves) were labeled with 8-azido-[α-^32P] and isolated as above. Similar amounts of protein were loaded in each lane of the gel as judged by staining with Coomassie brilliant blue (not shown). C. Rod outer segment membranes were incubated with (+) or without (−) trypsin and subsequently labeled with azido-[α-^32P]ATP. ABCR and the associated N and C complex were purified on a Rim3F4-Sepharose matrix. Left panel: Azido-ATP labeling of the full-length ABCR (220 kDa) and the C-half (114 kDa); N-half was not labeled. Right panel: Western blots labeled for the full-length ABCR and C-half with the Rim3F4 antibody and the N-half with the Rim5B4 antibody. […]

[2] = target: full-length ABCR (Homo sapiens, UniProt P78363); test: as above; design: Membranes from transfected cells expressing either full-length ABCR (lanes 1 & 2); expressed in transfected cells; host or cells: transfected cells (COS-1 or EBNA293); conditions: 1 mM ATP added prior to photoaffinity labeling; 1.5 μM 8-azido-[α-32P]ATP; FIG. 5A lane 2
Chain of full-length ABCR (P78363 whole entry): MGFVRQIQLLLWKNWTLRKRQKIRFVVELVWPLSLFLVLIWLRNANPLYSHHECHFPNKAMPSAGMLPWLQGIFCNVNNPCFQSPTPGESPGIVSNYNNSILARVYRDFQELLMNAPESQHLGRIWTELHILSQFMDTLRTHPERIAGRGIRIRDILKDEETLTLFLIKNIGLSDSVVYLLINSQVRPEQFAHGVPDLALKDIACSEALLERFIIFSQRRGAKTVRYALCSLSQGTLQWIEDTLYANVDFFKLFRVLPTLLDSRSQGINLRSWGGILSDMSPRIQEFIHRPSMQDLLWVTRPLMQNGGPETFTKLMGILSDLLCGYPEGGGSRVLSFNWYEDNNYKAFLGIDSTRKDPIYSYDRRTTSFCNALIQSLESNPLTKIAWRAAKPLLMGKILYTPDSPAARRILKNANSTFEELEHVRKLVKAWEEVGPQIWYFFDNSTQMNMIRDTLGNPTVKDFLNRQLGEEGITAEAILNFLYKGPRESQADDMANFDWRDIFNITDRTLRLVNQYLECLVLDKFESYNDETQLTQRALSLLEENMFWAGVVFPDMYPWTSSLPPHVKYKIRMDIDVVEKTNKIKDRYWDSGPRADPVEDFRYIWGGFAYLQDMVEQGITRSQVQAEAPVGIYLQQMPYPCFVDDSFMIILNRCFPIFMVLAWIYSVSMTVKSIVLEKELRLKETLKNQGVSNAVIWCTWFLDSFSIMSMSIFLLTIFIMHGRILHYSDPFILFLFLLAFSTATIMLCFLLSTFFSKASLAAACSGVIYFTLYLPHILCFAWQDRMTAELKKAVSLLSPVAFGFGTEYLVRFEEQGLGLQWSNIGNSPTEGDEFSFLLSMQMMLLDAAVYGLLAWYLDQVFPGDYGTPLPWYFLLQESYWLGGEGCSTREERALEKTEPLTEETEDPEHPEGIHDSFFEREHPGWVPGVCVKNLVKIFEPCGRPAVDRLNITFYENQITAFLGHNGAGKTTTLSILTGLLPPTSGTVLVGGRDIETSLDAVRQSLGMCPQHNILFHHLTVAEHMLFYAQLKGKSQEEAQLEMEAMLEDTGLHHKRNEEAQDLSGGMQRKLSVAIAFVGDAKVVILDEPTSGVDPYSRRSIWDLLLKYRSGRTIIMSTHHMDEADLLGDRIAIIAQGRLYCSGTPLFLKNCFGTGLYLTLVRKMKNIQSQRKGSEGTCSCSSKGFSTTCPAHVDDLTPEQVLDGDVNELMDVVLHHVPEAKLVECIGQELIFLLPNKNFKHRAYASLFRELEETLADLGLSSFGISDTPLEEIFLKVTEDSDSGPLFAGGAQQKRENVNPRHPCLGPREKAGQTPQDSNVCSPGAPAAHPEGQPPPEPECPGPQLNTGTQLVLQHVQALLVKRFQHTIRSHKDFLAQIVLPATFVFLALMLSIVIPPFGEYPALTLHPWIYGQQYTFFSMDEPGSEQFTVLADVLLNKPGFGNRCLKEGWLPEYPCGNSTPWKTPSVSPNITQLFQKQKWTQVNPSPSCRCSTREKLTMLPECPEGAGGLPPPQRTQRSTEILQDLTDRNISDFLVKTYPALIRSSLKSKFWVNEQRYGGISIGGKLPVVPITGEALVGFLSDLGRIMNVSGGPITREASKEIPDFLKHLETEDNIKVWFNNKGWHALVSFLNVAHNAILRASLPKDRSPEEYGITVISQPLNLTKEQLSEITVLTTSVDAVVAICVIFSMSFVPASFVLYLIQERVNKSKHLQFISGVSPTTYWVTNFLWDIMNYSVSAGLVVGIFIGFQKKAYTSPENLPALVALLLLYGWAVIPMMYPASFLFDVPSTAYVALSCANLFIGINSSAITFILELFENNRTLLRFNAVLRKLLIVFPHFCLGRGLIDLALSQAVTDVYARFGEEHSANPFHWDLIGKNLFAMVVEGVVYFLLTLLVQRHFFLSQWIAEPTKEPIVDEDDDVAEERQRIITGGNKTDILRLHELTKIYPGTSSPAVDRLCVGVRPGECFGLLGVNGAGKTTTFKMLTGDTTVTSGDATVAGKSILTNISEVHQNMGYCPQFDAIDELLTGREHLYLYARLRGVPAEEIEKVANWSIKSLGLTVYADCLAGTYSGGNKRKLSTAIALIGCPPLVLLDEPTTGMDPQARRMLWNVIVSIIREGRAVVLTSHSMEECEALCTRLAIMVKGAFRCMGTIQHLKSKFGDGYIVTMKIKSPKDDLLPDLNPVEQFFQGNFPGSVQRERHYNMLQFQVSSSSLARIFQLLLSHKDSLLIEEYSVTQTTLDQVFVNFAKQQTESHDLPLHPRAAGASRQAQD
Procedure: as §1

[3] = target: T2, ABCR (Homo sapiens, UniProt P78363); test: 8-azido-ATP/ADP nucleotide trapping in membranes from transfected cells; conditions: 800 μM orthovanadate, 5 μM 8-azido-[α-32P]ATP, 37° C.
T2 construct: Membranes from transfected cells expressing either full-length ABCR (lanes 1 & 2) or co-expressing the N and C halves; expressed in transfected cells; host or cells: transfected cells (COS-1 or EBNA293)
T2 sequence (P78363 whole entry): as above
Procedure: FIG. 7. Nucleotide trapping by ABCR and co-expressed N and C halves. A. Effect of orthovanadate on nucleotide trapping. Membranes from transfected cells were incubated with 5 μM 8-azido-[α-^32P]ATP at 37° C., washed, and tightly bound nucleotides were UV crosslinked. Lane 1, full-length ABCR; lane 2, full-length ABCR incubated with 800 μM orthovanadate; lane 3, co-expressed N and C halves; lane 4, co-expressed N- and C-halves incubated with 800 μM orthovanadate. B. Effect of temperature and retinal on nucleotide trapping. Lane 1, full-length ABCR labeled at 0° C.; lane 2, full-length ABCR labeled at 37° C.; lane 3, full-length ABCR labeled at 37° C. in the presence of 50 μM all-trans retinal; lane 4, co-expressed N and C halves labeled at 0° C.; lane 5, co-expressed N and C halves labeled at 37° C.; lane 6, co-expressed N and C halves labeled at 37° C. in the presence of 50 μM all-trans retinal.
8-Azido-ATP Trapping—Membranes were incubated with 5 μM 8-azido-[α-^32P]ATP in 50 μl of labeling buffer with or without 800 μM sodium orthovanadate for 10 min at 37° C. All-trans retinal and 50 μM DTT were added where indicated. Binding was stopped by the addition of ice-cold 20 mM Tris-HCl, pH 7.4, the membranes were collected by centrifugation and washed one more time. Samples exposed to orthovanadate were washed in the presence of 800 μM orthovanadate. […]

SMILES | effect on 8-azido-ATP labeling [1] | effect on 8-azido-ATP labeling [2] | effect on 8-azido ATP/ADP trapping [3]
Nc1ncnc2c1ncn2[C@@H]1O[C@H](COP(=O)(O)OP(=O)(O)OP(=O)(O)O)[C@@H](O)[C@H]1O [ATP] | essentially abolished | essentially abolished | 
[Na+].[Na+].[Na+].[O]=[V]([O-])([O-])[O-] [sodium orthovanadate] |  |  | not dependent
